# Like-named read-outs stand apart in the source and are kept apart here.
# B1: type I interferon: recombinant murine IFN-β from R&D systems used to pretreat macrophages (protein, UniProt P01575 22-182, looked up)
# Interferon beta: INYKQLQLQERTNIRKCQELLEQLNGKINLTYRADFKIPMEMTEKMQKSYTAFAIQEMLQNVFLVFRNNFSSTGWNETIVVRLLDELHQQTVFLKTVLEEKQEERLTWEMSSTALHLKSYYWRVQRYLKLMKYNSYAWMVVRAEIFRNFLIIRRLTRNFQN
# What was measured:
# peritoneal macrophages = type: cell-based, mouse
# [1] = test system: MyD88-independent pathway (TRIF-TRAM, IRF-3) in peritoneal macrophages; type: cell-based, mouse
# [2] = test system: vesicular stomatitis virus (VSV); type: cell-based; conditions: Heedless or Tlr4 Lps-d/Lps-d macrophages treated with interferon before infection (4 h)
# [3] = macrophages from homozygous Heedless mice compared with wild-type, 4 h incubation
molecule,measurement,setting,value
poly IC,TNF production in response to inducer,peritoneal macrophages; [3],normal
Pam3CSK4,TNF production in response to inducer,peritoneal macrophages; [3],normal
lipid A,TNF production in response to lipid A,peritoneal macrophages,perfectly able to produce TNF
same,formation of the IRF-3 phosphodimer,[1],not detected
same,signaling via the MyD88-independent pathway (type I IFN production),[1],prevented
MALP-2,TNF production in response to inducer,peritoneal macrophages,partial impairment
lipoteichoic acid,TNF production in response to inducer,peritoneal macrophages,partial impairment
Pam2CSK4,TNF production in response to inducer,peritoneal macrophages; [3],partial impairment
B1,lytic effect of VSV on macrophages,[2],prevented

# Reference: patent US20060257411A1 (priority 2005, published 2006)
